# Experimental data reported in patent US8962843B2, “1,3,4-oxadiazole and 1,3,4-thiadiazole beta-lactamase inhibitors” (priority 2012, dated 2015).
# Structures can show the parent of a compound that is named as a salt.
# Test system: bacterial strains that express the class D cephalosporinase OXA-15
# Assay: Standard BLI potentiation MIC / synergy MIC assays, strains expressing OXA-15
# Format: cell-based, E. coli
# Details: in combination with a β-lactam; comparator Avibactam (CCC)
# Description: The experimental protocol was performed according to Clinical and Laboratory Standards Institute (CLSI) guidelines with modifications as described below (CLSI guidelines can be derived from the CLSI document M07-A9 published in January 2012: “Methods for Dilution Antimicrobial Susceptibility Tests for Bacteria That Grow Aerobically; Approved Standard-Ninth Edition”).
# To prepare for MIC testing, frozen glycerol stocks of clinical isolates (Klebsiella pneumoniae, Eschericia coli, Enterobacter spp, Citrobacter spp, or Pseudomonas aeruginosa) were used to streak for isolated colonies on rich, non-selective, tryptic soy agar containing 5% sheep's blood (TSAB). Frozen glycerol stocks of laboratory engineered, isogenic E. coli strains, which contain cloned β-lactamase expressing plasmids were used to streak for isolated colonies on rich, selective LB agar supplemented with 25 μg/mL tetracycline to maintain the plasmid. All strains were incubated at 37° C. for 18-24 hrs.
# On the day of testing, primary cultures were started by scraping off 5-10 colonies from the TSAB plates containing clinical strains or the tetracycline supplemented LB plates containing engineered strains. The clinical strain material was suspended in ˜5 mL of cation adjusted Mueller Hinton Broth (CAMHB) in 14 mL culture tubes. The engineered strain material was suspended in CAMHB (supplemented with 25 μg/mL tetracycline) in 14 mL culture tubes. All strains were incubated at 37° C. with aeration (200 rpm) for ˜2 hrs until the optical density at 600 nm (OD600) was >0.1.
# The two compound components of the assay were each diluted in CAMHB and added to the 96-well broth microdilution assay plates. 50 μL of the β-lactam was added to each well of the assay plate in 2-fold dilutions with final concentrations ranging from 128 to 0.13 μg/mL. 25 μL of the BLI compound was added to all wells in the broth microdilution plates at a final concentration of 4 μg/mL. Inoculum cultures were prepared by standardizing the primary cultures to OD600=0.1 and then adding 20 μL of the adjusted primary culture per 1 mL CAMHB for clinical strains or CAMHB (supplemented with tetracycline at 100 μg/mL) for engineered strains, so that the final inoculum density was ˜10^5 colony forming units per milliliter. Diluted inoculum cultures were used to inoculate 25 μl, per well in 96-well broth microdilution assay plates. The final volume of each well was 100 μL and contained a β-lactam at different concentrations, a BLlcompound at 4 μg/mL concentration, the bacterial culture at an OD600 of approximately 0.001 and when necessary tetracycline at 25 μg/mL.
# Plates were incubated for 18-20 hours at 37° C. with aeration (200 rpm). Following incubation, growth was confirmed visually placing plates over a viewing apparatus (stand with a mirror underneath) and then OD600 was measured using a SpectraMax 340PC384 plate reader (Molecular Devices, Sunnyvale, Calif.). Growth was defined as turbidity that could be detected with the naked eye or achieving minimum OD600 of 0.1. MIC values were defined as the lowest concentration producing no visible turbidity.
# The synergy MIC (sMIC) assay determines the concentration of the BLI required to potentiate the activity of a fixed concentration of a β-lactam antibiotic against β-lactamase producing bacterial strains. The experimental protocol was performed according to Clinical and Laboratory Standards Institute (CLSI) guidelines with modifications as described below (CLSI guidelines can be derived from the CLSI document M07-A9 published in January 2012: “Methods for Dilution Antimicrobial Susceptibility Tests for Bacteria That Grow Aerobically; Approved Standard-Ninth Edition”). […]
row,Structure (SMILES),"activity against bacterial strains that express the class D cephalosporinase OXA-15, compared with Avibactam"
1,"N=C(N)NCc1nnc([C@@H]2CC[C@@H]3CN2C(=O)N3OS(=O)(=O)O)o1 [Compound 704, (2S,5R)-2-(5-(guanidinomethyl)-1,3,4-oxadiazol-2-yl)-7-oxo-1,6-diazabicyclo[3.2.1]octan-6-yl hydrogen sulfate]",more active than Avibactam
2,"Nc1nnc([C@@H]2CC[C@@H]3CN2C(=O)N3OS(=O)(=O)O)o1 [Compound 707, (2S,5R)-2-(5-amino-1,3,4-oxadiazol-2-yl)-7-oxo-1,6-diazabicyclo[3.2.1]octan-6-yl hydrogen sulfate]",more active than Avibactam
3,"N=C(N)N1CCC(c2nnc([C@@H]3CC[C@@H]4CN3C(=O)N4OS(=O)(=O)O)o2)CC1 [Compound 712, (2S,5R)-2-(5-(1-carbamimidoylpiperidin-4-yl)-1,3,4-oxadiazol-2-yl)-7-oxo-1,6-diazabicyclo[3.2.1]octan-6-yl hydrogen sulfate]",more active than Avibactam
4,"O=C1N2C[C@@H](CC[C@H]2c2nnc(N3CCNCC3)o2)N1OS(=O)(=O)O [Compound 713, (2S,5R)-7-oxo-2-(5-(piperazin-1-yl)-1,3,4-oxadiazol-2-yl)-1,6-diazabicyclo[3.2.1]octan-6-yl hydrogen sulfate]",more active than Avibactam
5,"N=C(N)NCCCc1nnc([C@@H]2CC[C@@H]3CN2C(=O)N3OS(=O)(=O)O)o1 [Compound 714, (2S,5R)-2-(5-(3-guanidinopropyl)-1,3,4-oxadiazol-2-yl)-7-oxo-1,6-diazabicyclo[3.2.1]octan-6-yl hydrogen sulfate]",more active than Avibactam
6,"NCC(O)c1nnc([C@@H]2CC[C@@H]3CN2C(=O)N3OS(=O)(=O)O)o1 (stereo partly drawn) [Compound 715, (2S,5R)-2-(5-(2-amino-1-hydroxyethyl)-1,3,4-oxadiazol-2-yl)-7-oxo-1,6-diazabicyclo[3.2.1]octan-6-yl hydrogen sulfate]",more active than Avibactam
7,"NCCNCCc1nnc([C@@H]2CC[C@@H]3CN2C(=O)N3OS(=O)(=O)O)o1 [Compound 716, (2S,5R)-2-(5-(2-((2-aminoethyl)amino)ethyl)-1,3,4-oxadiazol-2-yl)-7-oxo-1,6-diazabicyclo[3.2.1]octan-6-yl hydrogen sulfate]",more active than Avibactam
8,"NCC(N)c1nnc([C@@H]2CC[C@@H]3CN2C(=O)N3OS(=O)(=O)O)o1 (stereo partly drawn) [Compound 717, (2S,5R)-2-(5-(1,2-diaminoethyl)-1,3,4-oxadiazol-2-yl)-7-oxo-1,6-diazabicyclo[3.2.1]octan-6-yl hydrogen sulfate]",more active than Avibactam
9,"O=C1N2C[C@@H](CC[C@H]2c2nnc(C3CCNCC3)s2)N1OS(=O)(=O)O [Compound 719, (2S,5R)-7-oxo-2-(5-(piperidin-4-yl)-1,3,4-thiadiazol-2-yl)-1,6-diazabicyclo[3.2.1]octan-6-yl hydrogen sulfate]",more active than Avibactam
10,"O=C1N2C[C@@H](CC[C@H]2c2nnc(CC3CNC3)o2)N1OS(=O)(=O)O [Compound 725, (2S,5R)-2-(5-(azetidin-3-ylmethyl)-1,3,4-oxadiazol-2-yl)-7-oxo-1,6-diazabicyclo[3.2.1]octan-6-yl hydrogen sulfate]",more active than Avibactam
11,"NCC(O)Cc1nnc([C@@H]2CC[C@@H]3CN2C(=O)N3OS(=O)(=O)O)o1 (stereo partly drawn) [Compound 733, (2S,5R)-2-(5-(3-amino-2-hydroxypropyl)-1,3,4-oxadiazol-2-yl)-7-oxo-1,6-diazabicyclo[3.2.1]octan-6-yl hydrogen sulfate]",more active than Avibactam
12,"N=C(N)N[C@H]1C[C@H](c2nnc([C@@H]3CC[C@@H]4CN3C(=O)N4OS(=O)(=O)O)o2)C1 [Compound 748, (2S,5R)-2-(5-((1r,3S)-3-guanidinocyclobutyl)-1,3,4-oxadiazol-2-yl)-7-oxo-1,6-diazabicyclo[3.2.1]octan-6-yl hydrogen sulfate]",more active than Avibactam
13,"N[C@H]1C[C@H](NCc2nnc([C@@H]3CC[C@@H]4CN3C(=O)N4OS(=O)(=O)O)o2)C1 [Compound 757, (2S,5R)-2-(5-((((1r,3S)-3-aminocyclobutyl)amino)methyl)-1,3,4-oxadiazol-2-yl)-7-oxo-1,6-diazabicyclo[3.2.1]octan-6-yl hydrogen sulfate]",more active than Avibactam
14,"O=C1N2C[C@@H](CC[C@H]2c2nnc(CNC3CCNCC3)o2)N1OS(=O)(=O)O [Compound 769, (2S,5R)-7-oxo-2-(5-((piperidin-4-ylamino)methyl)-1,3,4-oxadiazol-2-yl)-1,6-diazabicyclo[3.2.1]octan-6-yl hydrogen sulfate]",more active than Avibactam
15,"NC1CCN(c2nnc([C@@H]3CC[C@@H]4CN3C(=O)N4OS(=O)(=O)O)o2)CC1 [Compound 773, (2S,5R)-2-(5-(4-aminopiperidin-1-yl)-1,3,4-oxadiazol-2-yl)-7-oxo-1,6-diazabicyclo[3.2.1]octan-6-yl hydrogen sulfate]",more active than Avibactam
16,"O=C1N2C[C@@H](CC[C@H]2c2nnc([C@@H]3CNCCN3)o2)N1OS(=O)(=O)O [Compound 778, (2S,5R)-7-oxo-2-(5((S)-piperazin-2-yl)-1,3,4-oxadiazol-2-yl)-1,6-diazabicyclo[3.2.1]octan-6-yl hydrogen sulfate]",more active than Avibactam
17,"N[C@H]1CC[C@@H](c2nnc([C@@H]3CC[C@@H]4CN3C(=O)N4OS(=O)(=O)O)o2)CC1 [Compound 780, (2S,5R)-2-(5-((1s,4R)-4-aminocyclohexyl)-1,3,4-oxadiazol-2-yl)-7-oxo-1,6-diazabicyclo[3.2.1]octan-6-yl hydrogen sulfate]",more active than Avibactam
18,"N[C@H]1CC[C@H](c2nnc([C@@H]3CC[C@@H]4CN3C(=O)N4OS(=O)(=O)O)o2)CC1 [Compound 781, (2S,5R)-2-(5-((1r,4S)-4-aminocyclohexyl)-1,3,4-oxadiazol-2-yl)-7-oxo-1,6-diazabicyclo[3.2.1]octan-6-yl hydrogen sulfate]",more active than Avibactam
19,"O=C1N2C[C@@H](CC[C@H]2c2nnc(CCCN3CCNCC3)o2)N1OS(=O)(=O)O [Compound 792, (2S,5R)-7-oxo-2-(5-(3-(piperazin-1-yl)propyl)-1,3,4-oxadiazol-2-yl)-1,6-diazabicyclo[3.2.1]octan-6-yl hydrogen sulfate]",more active than Avibactam
20,"O=C1N2C[C@@H](CC[C@H]2c2nnc(N3CCNCC3)s2)N1OS(=O)(=O)O [Compound 797, (2S,5R)-7-oxo-2-(5-(piperazin-1-yl)-1,3,4-thiadiazol-2-yl)-1,6-diazabicyclo[3.2.1]octan-6-yl hydrogen sulfate]",more active than Avibactam
